Results taken from PubChem BioAssay AID1259407 (Chemical Carcinogenesis Research Information System (CCRIS), 2018).
Active and inactive are the calls of the source. No rule for the calls is given here.

System: CCRIS mutagenicity, Ames/micronucleus/aberration tests
Assay: CCRIS mutagenicity studies
[1] = Test System: AMES SALMONELLA TYPHIMURIUM, Strain/Indicator: TA100, Metabolic Activation: NONE, Method: PREINCUBATION
[2] = Test System: AMES SALMONELLA TYPHIMURIUM, Strain/Indicator: TA98, Metabolic Activation: NONE, Method: STANDARD PLATE
[3] = Test System: AMES SALMONELLA TYPHIMURIUM, Strain/Indicator: TA100, Metabolic Activation: NONE, Method: STANDARD PLATE

`O=CNc1ccccc1` was tested, and the mutagenic call (Test System: AMES SALMONELLA TYPHIMURIUM, Strain/Indicator: TA97, Metabolic Activation: HAMSTER, LIVER, S-9, AROCLOR 1254 (10 OR 30%), Method: PREINCUBATION) was “inactive; negative”, the mutagenic call (Test System: AMES SALMONELLA TYPHIMURIUM, Strain/Indicator: TA97, Metabolic Activation: NONE, Method: PREINCUBATION) was “inactive; negative” and the mutagenic call (Test System: AMES SALMONELLA TYPHIMURIUM, Strain/Indicator: TA97, Metabolic Activation: RAT, LIVER, S-9, AROCLOR 1254 (10 OR 30%), Method: PREINCUBATION) was “inactive; negative”. For the same molecule, the mutagenic call (Test System: AMES SALMONELLA TYPHIMURIUM, Strain/Indicator: TA98, Metabolic Activation: HAMSTER, LIVER, S-9, AROCLOR 1254 (10 OR 30%), Method: PREINCUBATION) was “inactive; negative”, the mutagenic call (Test System: AMES SALMONELLA TYPHIMURIUM, Strain/Indicator: TA98, Metabolic Activation: NONE, Method: PREINCUBATION) was “inactive; negative” and the mutagenic call (Test System: AMES SALMONELLA TYPHIMURIUM, Strain/Indicator: TA98, Metabolic Activation: RAT, LIVER, S-9, AROCLOR 1254 (10 OR 30%), Method: PREINCUBATION) was “inactive; negative”. For the same molecule, the mutagenic call (Test System: AMES SALMONELLA TYPHIMURIUM, Strain/Indicator: TA100, Metabolic Activation: HAMSTER, LIVER, S-9, AROCLOR 1254 (10 OR 30%), Method: PREINCUBATION) was “inactive; negative”, the mutagenic call [1] was “inactive; negative” and the mutagenic call (Test System: AMES SALMONELLA TYPHIMURIUM, Strain/Indicator: TA100, Metabolic Activation: RAT, LIVER, S-9, AROCLOR 1254 (10 OR 30%), Method: PREINCUBATION) was “inactive; negative”. The mutagenic call (Test System: AMES SALMONELLA TYPHIMURIUM, Strain/Indicator: TA1535, Metabolic Activation: HAMSTER, LIVER, S-9, AROCLOR 1254 (10 OR 30%), Method: PREINCUBATION) was “inactive; negative”, the mutagenic call (Test System: AMES SALMONELLA TYPHIMURIUM, Strain/Indicator: TA1535, Metabolic Activation: NONE, Method: PREINCUBATION) was “inactive; negative” and the mutagenic call (Test System: AMES SALMONELLA TYPHIMURIUM, Strain/Indicator: TA1535, Metabolic Activation: RAT, LIVER, S-9, AROCLOR 1254 (10 OR 30%), Method: PREINCUBATION) was “inactive; negative”.

For `C[C@]12CC[C@@H]3c4ccc(O)cc4CC[C@H]3[C@@H]1C[C@@H](O)C2=O`, the mutagenic call (Test System: Ames Salmonella typhimurium, Strain/Indicator: TA98, Metabolic Activation: None, Method: Standard plate) was “inactive; negative”, the mutagenic call (Test System: Ames Salmonella typhimurium, Strain/Indicator: TA98, Metabolic Activation: Rat, liver, S-9, Method: Standard plate) was “inactive; negative” and the mutagenic call (Test System: Ames Salmonella typhimurium, Strain/Indicator: TA100, Metabolic Activation: None, Method: Standard plate) was “inactive; negative”. The mutagenic call (Test System: Ames Salmonella typhimurium, Strain/Indicator: TA100, Metabolic Activation: Rat, liver, S-9, Method: Standard plate) was “inactive; negative”.

With `CCOC(=O)CC(SP(=S)(OC)OC)C(=O)OCC` (stereo not given) the mutagenic call (End Point: IN VITRO CHROMOSOMAL ABERRATIONS, Test System: CHINESE HAMSTER OVARY CELLS, Metabolic Activation: NONE) was “inactive; negative”, the mutagenic call (End Point: IN VITRO CHROMOSOMAL ABERRATIONS, Test System: CHINESE HAMSTER OVARY CELLS, Metabolic Activation: RAT, LIVER, S-9, AROCLOR 1254) was “active; positive; precipitation occurred at all doses” and the mutagenic call (End Point: IN VITRO MICRONUCLEUS, Test System: HUMAN PERIPHERAL LYMPHOCYTES, Metabolic Activation: NONE, Method: DUAL COLOR PROBE) was “active; positive”. The mutagenic call (End Point: IN VIVO CHROMOSOMAL ABERRATIONS, Test System: BONE MARROW, Species: MOUSE, Strain/Sex: SWISS/MALE, Route: IP INJECTION) was “active; positive (structural changes: chromosome gaps, abnormal metaphases)”, the mutagenic call (End Point: IN VIVO CHROMOSOMAL ABERRATIONS, Test System: BONE MARROW, Species: MOUSE, Strain/Sex: SWISS/MALE, Route: ORAL (DIET)) was “active; positive (structural changes: gaps, breaks, deletions, tetraploidy)” and the mutagenic call (End Point: IN VIVO MICRONUCLEUS, Test System: BONE MARROW POLYCHROMATIC ERYTHROCYTES, Species: MOUSE, Strain/Sex: SWISS/MALE, FEMALE, Route: IP INJECTION) was “active; positive; higher dose effective”. For the same molecule, the mutagenic call (End Point: IN VIVO MICRONUCLEUS, Test System: BONE MARROW POLYCHROMATIC ERYTHROCYTES, Species: MOUSE, Strain/Sex: SWISS/MALE, FEMALE, Route: ORAL) was “active; positive”, the mutagenic call (End Point: In vivo micronucleus, Test System: Peripheral blood polychromatic and normochromatic erythrocytes, Species: Rat, Strain/Sex: Wistar/Male, Route: Intraperitoneal) was “active; positive. positive response at highest dose” and the mutagenic call (End Point: In vivo micronucleus, Test System: Peripheral blood polychromatic erythrocytes, Species: Rat, Strain/Sex: Wistar/Male, Route: Intraperitoneal) was “inactive; negative. increases in ratio of polychromatic erythrocytes to normochromatic lym”. For the same molecule, the mutagenic call (Test System: AMES SALMONELLA TYPHIMURIUM, Strain/Indicator: TA97A, Metabolic Activation: NONE, Method: STANDARD PLATE) was “inactive; negative”, the mutagenic call (Test System: AMES SALMONELLA TYPHIMURIUM, Strain/Indicator: TA97A, Metabolic Activation: RAT, CECAL CELL FREE EXTRACT, Method: STANDARD PLATE) was “inactive; negative” and the mutagenic call (Test System: AMES SALMONELLA TYPHIMURIUM, Strain/Indicator: TA97A, Metabolic Activation: RAT, LIVER, S-9, AROCLOR 1254, Method: STANDARD PLATE) was “inactive; negative”. The mutagenic call [2] was “inactive; negative”, the mutagenic call (Test System: AMES SALMONELLA TYPHIMURIUM, Strain/Indicator: TA98, Metabolic Activation: RAT, CECAL CELL FREE EXTRACT, Method: STANDARD PLATE) was “inactive; negative” and the mutagenic call (Test System: AMES SALMONELLA TYPHIMURIUM, Strain/Indicator: TA98, Metabolic Activation: RAT, LIVER, S-9, AROCLOR 1254, Method: STANDARD PLATE) was “inactive; negative”. For the same molecule, the mutagenic call (Test System: AMES SALMONELLA TYPHIMURIUM, Strain/Indicator: TA98, Metabolic Activation: S-9, NADPH GENERATING SYSTEM, Method: STANDARD PLATE) was “inactive; negative”, the mutagenic call [3] was “inactive; negative” and the mutagenic call (Test System: AMES SALMONELLA TYPHIMURIUM, Strain/Indicator: TA100, Metabolic Activation: RAT, CECAL CELL FREE EXTRACT, Method: STANDARD PLATE) was “inactive; negative”. The mutagenic call (Test System: AMES SALMONELLA TYPHIMURIUM, Strain/Indicator: TA100, Metabolic Activation: RAT, LIVER, S-9, AROCLOR 1254, Method: STANDARD PLATE) was “inactive; negative”, the mutagenic call (Test System: AMES SALMONELLA TYPHIMURIUM, Strain/Indicator: TA102, Metabolic Activation: NONE, Method: STANDARD PLATE) was “inactive; negative” and the mutagenic call (Test System: AMES SALMONELLA TYPHIMURIUM, Strain/Indicator: TA102, Metabolic Activation: S-9, NADPH GENERATING SYSTEM, Method: STANDARD PLATE) was “inactive; negative”. For the same molecule, the mutagenic call (Test System: AMES SALMONELLA TYPHIMURIUM, Strain/Indicator: TA1535, Metabolic Activation: NONE, Method: STANDARD PLATE) was “inactive; negative”, the mutagenic call (Test System: AMES SALMONELLA TYPHIMURIUM, Strain/Indicator: TA1535, Metabolic Activation: S-9, NADPH GENERATING SYSTEM, Method: STANDARD PLATE) was “inactive; negative” and the mutagenic call (Test System: AMES SALMONELLA TYPHIMURIUM, Strain/Indicator: TA1537, Metabolic Activation: NONE, Method: STANDARD PLATE) was “inactive; negative”. The mutagenic call (Test System: AMES SALMONELLA TYPHIMURIUM, Strain/Indicator: TA1537, Metabolic Activation: S-9, NADPH GENERATING SYSTEM, Method: STANDARD PLATE) was “inactive; negative”.

In the case of `Cc1ccc(N)cc1N=[N+]([O-])c1cc(N)ccc1C`, the mutagenic call (Test System: AMES SALMONELLA TYPHIMURIUM, Strain/Indicator: TA98, Metabolic Activation: NONE, Method: SUSPENSION/PLATE) is reported as “inactive; negative”, the mutagenic call (Test System: AMES SALMONELLA TYPHIMURIUM, Strain/Indicator: TA98, Metabolic Activation: RAT, LIVER, S-9, PHENOBARBITAL AND 5,6-BENZOFLAVONE, Method: SUSPENSION/PLATE) is reported as “inactive; negative” and the mutagenic call (Test System: AMES SALMONELLA TYPHIMURIUM, Strain/Indicator: TA100, Metabolic Activation: NONE, Method: SUSPENSION/PLATE) is reported as “inactive; negative”. For the same molecule, the mutagenic call (Test System: AMES SALMONELLA TYPHIMURIUM, Strain/Indicator: TA100, Metabolic Activation: RAT, LIVER, S-9, PHENOBARBITAL AND 5,6-BENZOFLAVONE, Method: SUSPENSION/PLATE) was “active; positive”.

`O=C(O)c1cc(=O)c2cccc(O)c2[nH]1` was tested, and the mutagenic call [1] was “inactive; negative”.

With `CCOP(=O)(Oc1ccc([N+](=O)[O-])cc1)c1ccccc1` (stereo not given) the mutagenic call [2] was “active; positive”, the mutagenic call (Test System: AMES SALMONELLA TYPHIMURIUM, Strain/Indicator: TA98, Metabolic Activation: RAT, LIVER, S-9, Method: STANDARD PLATE) was “inactive; negative” and the mutagenic call [3] was “inactive; negative”. The mutagenic call (Test System: AMES SALMONELLA TYPHIMURIUM, Strain/Indicator: TA100, Metabolic Activation: RAT, LIVER, S-9, Method: STANDARD PLATE) was “inactive; negative”.
